This is an account of results in patent US11066447B2, “Aureobasidium derivatives and methods of synthesis” (AureoGen Biosciences, Inc., priority 2016, dated 2021).

The test system of one experiment is A. fumigatus MMX 5944. Briefly: MIC/MEC assay (CLSI microdilution). The settings on record: Aspergillus fumigatus, MMX5944, 48 h; for minimal effective concentration: RPMI plus 0.002% Tween-80; for MIC: RPMI plus 0.002% Tween-80, read-out: MIC. The class given is cell-based. As to the method:
(§1) Aureobasidin and test compounds (i.e., AbA derivatives of the present invention) were received from Kalexsyn, Inc. (Kalamazoo, Mich.) as powder and were stored at 4° C. until the day of assay. […] amphotericin was obtained from Sigma Aldrich and stored under like conditions. […] Ethanol (95%) was used as a solvent and diluent for all AbA compounds. Amphotericin B was tested from 0.06-64 μg/mL. Amphotericin B (Sigma Aldrich; St. Louis, Mo.; Cat No. A9528-100MG, Lot No. 120M4087) was dissolved and diluted with dimethylsulfoxide (DMSO; Sigma Aldrich; St. Louis, Mo.; Cat No. 472301 Lot No. SHBD2072V).
(§2) The solvents were added to the test agents and the stock solutions stood for approximately 1 hr at room temperature prior to use to auto sterilize. Stock solutions were prepared at 40× the desired top concentration in the test plate.
(§3) All of the test isolates were originally received from either the American Type Culture Collection (ATCC), clinical labs, or directly from Aureogen Biosciences. Organisms stored by Micromyx were cultured on agar medium appropriate to each organism. Colonies were picked by swab from the isolation plates and put into suspension in appropriate broth containing cryoprotectant. The suspensions were aliquoted into cryogenic vials and maintained at −80° C.
(§4) Prior to testing, Candida isolates were streaked from the frozen vials on Sabouraud dextrose agar. The yeast isolates were incubated for 48 hours at 35° C. before use. The fungal isolates were obtained from enumerated fungal stocks previously prepared at Micromyx and stored in phosphate buffered saline at 4° C.
(§5) Test Media. The medium employed for the MIC assay was RPMI-1640 medium from HyClone Laboratories (Logan, Utah; Lot No. AYB60287A). The medium was prepared according to Clinical and Laboratory Standards Institute (CLSI) guidelines (1, 2), and modified to include 0.002% Tween-80. Candida parapsilosis ATCC 22019 (MMX 2323) and Aspergillus fumigatus ATCC MYA-3626 (MMX 5280) were also tested without Tween-80 to provide data for the quality control of amphotericin B in accordance with CLSI (3) and to assess the effect of Tween-80 on the activity of the test agents.
(§6) Test Procedure. The MIC assay method followed the procedure described by CLSI (1, 2) and employed automated liquid handlers to conduct serial dilutions and liquid transfers. Automated liquid handlers included the Multidrop 384 (Labsystems, Helsinki, Finland), Biomek 2000 and Biomek FX (Beckman Coulter, Fullerton Calif.). The wells in columns 2-12 in standard 96-well microdilution plates (Costar 3795) were filled with 150 μl of the appropriate diluent (95% EtOH for investigational compounds, 100% DMSO for amphotericin B). These assay plates would become the ‘mother plates’ from which the assay ‘daughter plates’ would be prepared. The drugs (300 μL at 40× the desired top concentration in the test plates) were dispensed into the appropriate well in Column 1 of the mother plates. The Biomek 2000 was used to make two-fold serial dilutions through Column 11 in the “mother plate”. The wells of Column 12 contained no drug and served as the organism growth control wells.
(§7) The daughter plates were loaded with 185 μL per well on the Multidrop 384 with RPMI plus 0.002% Tween-80 or RPMI containing no Tween-80 for the testing of the two QC isolates. The daughter plates were prepared on the Biomek FX instrument which transferred 5 μL of drug solution from each well of a mother plate to each corresponding well of each daughter plate in a single step.
(§8) A standardized inoculum of each organism was prepared per CLSI methods (1, 2). For the Candida isolates, colonies were picked from the streak plate and a suspension was prepared in RPMI to equal a 0.5 McFarland standard. This suspension was diluted 1:100 in RPMI resulting in a final concentration of approximately 0.5-2.5×10^3 CFU/mL. […]
For orientation: Dilution methods test growth across graded concentrations, often in twofold steps.

Experiment [1] concerns A. fumigatus MMX 6782 ATCC 13073. Description: MIC/MEC assay (CLSI microdilution). The experiment is classed as cell-based. The settings on record: Aspergillus fumigatus, ATCC13073, 48 h; for minimal effective concentration: RPMI plus 0.002% Tween-80, read-out: MEC; for MIC: RPMI plus 0.002% Tween-80, read-out: MIC. As to the method:
as §1, §2, §3, §4, §5, §6, §7, §8

Another experiment concerns A. flavus MMX 5948. Description: MIC/MEC assay (CLSI microdilution). The experiment is classed as cell-based. The settings on record: Aspergillus flavus, MMX5948, 48 h; for minimal effective concentration: RPMI plus 0.002% Tween-80; for MIC: RPMI plus 0.002% Tween-80, read-out: MIC. As to the method:
as §1, §2, §3, §4, §5, §6, §7, §8

The subject of experiment [2] is A. fumigatus MMX 6781 ATCC MYA-4609. Briefly: MIC/MEC assay (CLSI microdilution). The settings on record: Aspergillus fumigatus; for MIC: 48 h, RPMI plus 0.002% Tween-80, read-out: MIC; for minimal effective concentration: RPMI plus 0.002% Tween-80, 48 hr. The experiment is classed as cell-based. How it is done:
as §1, §2, §3, §4, §5, §6, §7, §8

Experiment [3] concerns A. niger MMX 0624 ATCC 16888. Description: MIC/MEC assay (CLSI microdilution). The settings on record: Aspergillus niger, ATCC16888, 48 h; for minimal effective concentration: RPMI plus 0.002% Tween-80, read-out: MEC; for MIC: RPMI plus 0.002% Tween-80, read-out: MIC. The class given is cell-based. How it is done: as §1, §2, §3, §4, §5, §6, §7, §8
In experiment [4] the test system is C. parapsilosis MMX 2323 ATCC 22019. Briefly: MIC assay (CLSI microdilution). The experiment is classed as cell-based, Candida parapsilosis. Conditions: read-out: MIC. How it is done:
as §1, §2, §3, §4, §5, §6, §7, §8

The subject of experiment [5] is C. neoformans MMX 0634 ATCC 90112. Briefly: MIC assay (CLSI microdilution). Conditions: Cryptococcus neoformans, ATCC90112, RPMI plus 0.002% Tween-80; read-out: MIC. The class given is cell-based. As to the method:
as §1, §2, §3, §4, §5, §6, §7, §8

Experiment [6] concerns C. albicans MMX 2000 ATCC 10231. Description: MIC assay (CLSI microdilution). The class given is cell-based. Conditions: Candida albicans, ATCC10231, RPMI plus 0.002% Tween-80; read-out: MIC. As to the method:
as §1, §2, §3, §4, §5, §6, §7, §8

In experiment [7] the test system is A. fumigatus MMX 5280 ATCC MYA-3626. Description: MIC/MEC assay (CLSI microdilution). The class given is cell-based, Aspergillus fumigatus. Conditions: Aspergillus fumigatus, 48 h. As to the method:
as §1, §2, §3, §4, §5, §6, §7, §8

Where [8] appears, read: ATCC22019, RPMI plus 0.002% Tween-80.
Where [9] appears, read: RPMI plus 0.002% Tween-80, read-out: MEC.
Setting [10] is: RPMI plus 0.002% Tween-80, read-out: MIC.
The mark [11] stands for this setting: Without Tween-80, read-out: MEC.
Setting [12] is: Without Tween-80, read-out: MIC.

In brackets after ≈: the same amount, converted by molar mass. Like-named read-outs stand apart in the source and are kept apart here. Numbered stars: 1 amine (or outer) side, 2 acyl side, 3 side chain; on linkers, the order of the positions; unused ones are H or OH. Square brackets hold non-standard residues; d marks the D form. Peptide text beside a SMILES is read from it. X35 = CN([C@@H](Cc1cccc(-c2ccc(-n3c4ccccc4c4ccccc43)cc2)c1)C(=O)[*:2])[*:1]; X27 = CN([C@@H](Cc1cccc(-c2cccc3ccccc23)c1)C(=O)[*:2])[*:1]; Hmp(2R,3S) = CC[C@H](C)[C@@H](O)C(=O)O; NMeVal(β-OH) = CN[C@H](C(=O)O)C(C)(C)O; NMeV = CN[C@H](C(=O)O)C(C)C

For orientation: MIC means the smallest concentration in the dilution series that meets the test's criterion for growth inhibition. On to `CC[C@H](C)[C@@H]1NC(=O)[C@@H]2CCCN2C(=O)[C@H](Cc2cccc(-c3ccc(-n4c5ccccc5c5ccccc54)cc3)c2)N(C)C(=O)[C@H](Cc2ccccc2)NC(=O)[C@H](C(C)C)N(C)C(=O)[C@@H]([C@@H](C)CC)OC(=O)[C@H](C(C)(C)O)N(C)C(=O)[C@H](CC(C)C)NC(=O)[C@H](C(C)C)N(C)C1=O` [Compound 8] (cyclo(F[X35]PI[NMeV]L[NMeVal(β-OH)][Hmp(2R,3S)][NMeV])), for which the minimal effective concentration (with A. fumigatus MMX 5944; in experiment [1]; in the experiment on A. flavus MMX 5948; in [2]; in experiment [3]; in [7] (setting [9])) was above 64 µg/mL in each case. Further, in experiment [7] (setting [11]), the minimal effective concentration is above 64 µg/mL. Also, the MIC (in the experiment with A. fumigatus MMX 5944; in [1]; in the experiment on A. flavus MMX 5948; in experiment [2]; in experiment [3]; in [4] (setting [8])) was above 64 µg/mL each time. Besides, the MIC in experiment [4] (ATCC22019, Without Tween-80) is above 64 µg/mL; in experiment [5] it was above 64 µg/mL; in [6], above 64 µg/mL; in [7] (setting [10]) it was above 64 µg/mL; in [7] (setting [12]), above 64 µg/mL.

For the compound `CC[C@H](C)[C@@H]1NC(=O)[C@@H]2CCCN2C(=O)[C@H](Cc2cccc(-c3cccc4ccccc34)c2)N(C)C(=O)[C@H](Cc2ccccc2)NC(=O)[C@H](C(C)C)N(C)C(=O)[C@@H]([C@@H](C)CC)OC(=O)[C@H](C(C)(C)O)N(C)C(=O)[C@H](CC(C)C)NC(=O)[C@H](C(C)C)N(C)C1=O` [Compound 9] (cyclo(F[X27]PI[NMeV]L[NMeVal(β-OH)][Hmp(2R,3S)][NMeV])), the minimal effective concentration in the experiment on A. fumigatus MMX 5944 was above 64 µg/mL; in experiment [1], 1 µg/mL; in the experiment with A. flavus MMX 5948, above 64 µg/mL; in [2], 1 µg/mL; in [3] it was 0.25 µg/mL; in experiment [7] (setting [9]), above 64 µg/mL. In addition, in experiment [7] (setting [11]), the minimal effective concentration was above 64 µg/mL. The MIC was above 64 µg/mL in the experiment on A. fumigatus MMX 5944; above 64 µg/mL in [1]; above 64 µg/mL with A. flavus MMX 5948; above 64 µg/mL in experiment [2]; 0.25 µg/mL in [3]; 0.25 µg/mL in [4] (setting [8]). The MIC in [4] (ATCC22019, Without Tween-80) was 1 µg/mL (≈ 0.815 µM); in [5] it was 0.12 µg/mL; in [6] it was 0.12 µg/mL; in [7] (setting [10]), above 64 µg/mL; in experiment [7] (setting [12]) it was above 64 µg/mL.
